This note sets out measurements from patent US20080200403A1, “9A-Carbamoyl and Thiocarbamoyl Azalides with Anti-Inflammatory Activity” (GLAXOSMITHKLINE, priority 2005, published 2008).

The test system of the data set is granulocytes. In words: Accumulation in granulocytes (LC-MS). The data set is classed as in vitro ADME. As to conditions: 180 min. As to the method:
Granulocytes were obtained from heparinized whole blood using density gradient centrifugation. Erythrocytes were sedimented on 3% dextran T-500 (Amersham Pharmacia Biotech AB, Uppsala, Sweden). Leukocytes were centrifuged on Ficoll (Amersham Pharmacia Biotech AB, Uppsala, Sweden) for 35 min at 600 g at 20° C. The pellet of granulocytes was cleared from remaining erythrocytes by a brief hypotonic lysis.
7.5×10^6 granulocytes, isolated as described above, were suspended in 3 mL of RPMI 1640 (Institute of Immunology, Croatia) containing 10 μM of tested macrolide. Samples were incubated at 37° C. for 180 min. Following incubation, the samples were centrifuged through the layer of Poly(dimethylsiloxane-co-diphenylsiloxane), dihydroxy terminated—silicone oil (Aldrich Chemical Company, Milwaukee, USA). The pellet was resuspended in 0.5% Triton X-100 (Sigma, St. Louis, USA) in deionized water (MilliQ, Millipore Corporation, Bedford, USA). The suspension was sonicated, proteins were precipitated with acetonitrile, and the concentration of macrolide in the supernatants was determined by liquid chromatography-mass spectrometry (LC-MS).
Intracellular concentrations of the test compounds were calculated from the mean cell number recovered after centrifuging through silicone oil. According to the literature, about 1 million neutrophils is considered to have a volume of 0.24 μL (Vazifeh et al., Antimicrob Agents Chemo. 1997; 41: 2099-2107). To estimate the extent of macrolide accumulation, the intracellular to extracellular concentration ratio (I/E) was calculated, where E (due to a large volume of incubation medium) was taken as constant (10 μM). Results are expressed relative to azithromycin according to the following equation: % of azithromycin uptake=(I/E of a substance/I/E of azithromycin)×100. I/E values obtained for azithromycin were 164±10.

For the compound `CC[C@H]1OC(=O)[C@H](C)[C@@H](O[C@H]2C[C@@](C)(OC)[C@@H](O)[C@H](C)O2)[C@H](C)[C@@H](O[C@@H]2O[C@H](C)C[C@H](N(C)C)[C@H]2O)[C@](C)(O)C[C@@H](C)CN(C)[C@H](C)[C@@H](O)[C@]1(C)O` [Azithromycin, azithromycin, reference compound], under “10 μM”, the “% of azithromycin uptake” value turned out to be 100% and the “intracellular to extracellular concentration ratio (I/E)” value amounted to 164±10.

`CCC1OC(=O)C(C)C(OC2CC(C)(OC)C(O)C(C)O2)C(C)C(OC2OC(C)CC(N(C)C)C2O)C(C)(O)CC(C)CN(C(=S)Nc2cccc(F)c2)C(C)C(O)C1(C)O` (stereo not drawn) [Compound 3]: the “% of azithromycin uptake” value (granulocytes, 10 μM macrolide, 37° C., (I/E of substance/I/E of azithromycin)×100) was 93%.
